Results published in patent publication US12703836B2, “Mixture of compounds with high molecular weights, obtained from sugar cane wax (Saccharum officinarum L.)” (CENTRO NACIONAL DE INVESTIGACIONES CIENTÍFICAS, priority 2021, dated 2026).

Columns and labels:
[1] = system: Mongolian gerbils with global brain Ischemia/Reperfusion (I/R); test: Locomotor activity (open field) after global cerebral ischemia/reperfusion; assay type: in vivo; details: 24 hours post-ischemia, oral HMWS 200, AcGS 132, AlcG 40, AldG 28, AcGL 200, ASA 60 mg/kg
Text: For the evaluation of the neuroprotective effect of the mixture of high molecular weight substances, the object of the present invention, an experimental model of global cerebral ischemia by occlusion and reperfusion of the carotid arteries was used. The composition of High Molecular Weight Substances (HMWS) obtained in example 1 was subjected to a preclinical test with animals, in which its pharmacological effect was compared with the effects of pure extracts of Fatty Acids in the form of Salts (AcGS), fatty alcohols (AlcG) and high molecular weight aldehydes (AldG), which were administered in the dose equivalent to the proportion in which each one is present in 200 mg/kg of the HMWS Active Ingredient. Furthermore, the effect of HMWS was compared with the effect of pure free fatty acid (AcGL) extract administered at equal doses. […] Once the quarantine was over, the gerbils were distributed into 8 groups: a negative control that only received vehicle and cerebral ischemia (CI) was not induced and 7 groups with induced CI. […] All treatments were administered orally through intragastric intubation (0.5 mL/70 g body weight) 1 hour prior to induction of ischemia. […] For 6 minutes, the number of times the gerbils crossed the different quadrants with their front legs and the number of times they stopped or leaned was quantified.

[2] = system: pyramidal cells of the CA1 area of the hippocampus; test: Histological score of brain damage after ischemia/reperfusion; assay type: in vivo, Mongolian gerbils; details: gerbils, oral HMWS 200, AcGS 132, AlcG 40, AldG 28, AcGL 200, ASA 60 mg/kg
Text: For the evaluation of the neuroprotective effect of the mixture of high molecular weight substances, the object of the present invention, an experimental model of global cerebral ischemia by occlusion and reperfusion of the carotid arteries was used. The composition of High Molecular Weight Substances (HMWS) obtained in example 1 was subjected to a preclinical test with animals, in which its pharmacological effect was compared with the effects of pure extracts of Fatty Acids in the form of Salts (AcGS), fatty alcohols (AlcG) and high molecular weight aldehydes (AldG), which were administered in the dose equivalent to the proportion in which each one is present in 200 mg/kg of the HMWS Active Ingredient. Furthermore, the effect of HMWS was compared with the effect of pure free fatty acid (AcGL) extract administered at equal doses. Once the quarantine was over, the gerbils were distributed into 8 groups: a negative control that only received vehicle and cerebral ischemia (CI) was not induced and 7 groups with induced CI. […] All treatments were administered orally through intragastric intubation (0.5 mL/70 g body weight) 1 hour prior to induction of ischemia. […] Sections from each brain were evaluated by a light microscopy scoring system for determination of damage to the pyramidal cells of the CA1 area of the hippocampus with bilateral averages. […]

[3] = system: plasma concentrations of MDA; test: Plasma lipid peroxidation (SRATB, MDA) after cerebral ischemia/reperfusion; assay type: in vivo, Mongolian gerbils; details: gerbils, plasma after I/R; oral HMWS 200, AcGS 132, AlcG 40, AldG 28, AcGL 200, ASA 60 mg/kg
Text: For the evaluation of the neuroprotective effect of the mixture of high molecular weight substances, the object of the present invention, an experimental model of global cerebral ischemia by occlusion and reperfusion of the carotid arteries was used. The composition of High Molecular Weight Substances (HMWS) obtained in example 1 was subjected to a preclinical test with animals, in which its pharmacological effect was compared with the effects of pure extracts of Fatty Acids in the form of Salts (AcGS), fatty alcohols (AlcG) and high molecular weight aldehydes (AldG), which were administered in the dose equivalent to the proportion in which each one is present in 200 mg/kg of the HMWS Active Ingredient. Furthermore, the effect of HMWS was compared with the effect of pure free fatty acid (AcGL) extract administered at equal doses. Once the quarantine was over, the gerbils were distributed into 8 groups: a negative control that only received vehicle and cerebral ischemia (CI) was not induced and 7 groups with induced CI. […] All treatments were administered orally through intragastric intubation (0.5 mL/70 g body weight) 1 hour prior to induction of ischemia. […] To determine lipid peroxidation, the formation of substances reactive to thiobarbituric acid (SRATB) was quantified (according to Ohkawa et al., 1979) in plasma, and was expressed as nmol malondialdehyde (MDA)/mg of protein.

CC(=O)Oc1ccccc1C(=O)O [ASA, aspirin]
Crosses (#), open field locomotor activity ([1]; 6 minutes, mean ± SEM, positive control 355.5 ± 12.4, negative 250.8 ± 14.8): 286.2 ± 15.2 # | Inhibition (%) of hyperlocomotion (crosses) [1]: 66.2% | Histologic Score (brain, CA1, scale 0-4) ([2]; 24 hours reperfusion, mean ± SEM, positive control 2.96 ± 0.07): 2.00 ± 0.15 | Inhibition (%) of histological score of brain damage ([2]; I/R): 32.4% | Inhibition (%) of MDA increase [3]: 0.0%
